We go through ten compounds from patent US9499492B2, “4-(ortho)-fluorophenyl-5-fluoropyrimidin-2-yl amines containing a sulfoximine group” (BAYER PHARMA AKTIENGESELLSCHAFT, priority 2012, dated 2016).

The target in series [1] is CDK9/CycT1 (Homo sapiens (Human), UniProt P50750). The series is described as follows: CDK9/CycT1 kinase assay (Method 1a). It is filed as biochemical. Particulars: for IC50: 10 μM ATP; for Selectivity CDK9/CDK2: derived from Methods 1a. and 2.
The subject of series [2] is HeLa, human cervical tumour cells. The series can be described thus: Proliferation assay, HeLa (Method 3). Particulars: 4 days, crystal violet, read-out: Inhibition of HeLa cell proliferation IC50. The class given is cell-based. An outline of the steps:
(§1)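 Crystal violet absorbance (595 nm) after 4-day compound exposure; % change in cell number scaled between a plate stained at compound addition (0%) and untreated wells (100%). Dose range 0.001–10 μM, DMSO 0.5% final, added 24 h post-seeding.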

Series [3] in a line: In vitro metabolic stability in rat hepatocytes (Method 5). The class given is in vitro ADME, Han Wistar rat. Particulars: 1 μM test compound. As for the experimental part: 5. Investigation of In Vitro Metabolic Stability in Rat Hepatocytes
Hepatocytes from Han Wistar rats were isolated via a 2-step perfusion method. After perfusion, the liver was carefully removed from the rat: the liver capsule was opened and the hepatocytes were gently shaken out into a Petri dish with ice-cold Williams medium E (purchased from Sigma Aldrich Life Science, St Louis, Mo.). The resulting cell suspension was filtered through sterile gaze in 50 ml falcon tubes and centrifuged at 50×g for 3 min at room temperature. The cell pellet was resuspended in 30 ml WME and centrifuged through a Percoll® gradient for 2 times at 100×g. The hepatocytes were washed again with Williams' medium E (WMA) and resuspended in medium containing 5% Fetal calf serum (FCS, purchased from Invitrogen, Auckland, NZ). Cell viability was determined by trypan blue exclusion.
For the metabolic stability assay liver cells were distributed in WME containing 5% FCS to glass vials at a density of 1.0×10^6 vital cells/ml. The test compound was added to a final concentration of 1 μM. During incubation, the hepatocyte suspensions were continuously shaken and aliquots were taken at 2, 8, 16, 30, 45 and 90 min, to which equal volumes of cold acetonitrile were immediately added. Samples were frozen at −20° C. over night, after subsequently centrifuged for 15 minutes at 3000 rpm and the supernatant was analyzed with an Agilent 1200 HPLC-system with LCMS/MS detection.
The half-life of a test compound was determined from the concentration-time plot. From the half-life the intrinsic clearances were calculated. Together with the additional parameters liver blood flow, amount of liver cells in vivo and in vitro.

The test system of series [4] is A2780, human ovarian carcinoma cells. The series is described as follows: Proliferation assay, A2780 (Method 3). The class given is cell-based. As to conditions: A2780, 4 days, crystal violet, read-out: Inhibition of A2780 cell proliferation IC50. Put shortly:
as §1

Series [5] deals with DU 145, hormone-independent human prostate carcinoma cells. The series can be described thus: Proliferation assay, DU 145 (Method 3). The class given is cell-based. Particulars: DU145, 4 days, crystal violet, read-out: Inhibition of DU145 cell proliferation IC50. As for the experimental part:
(§2) After 24 hours, the cells of one plate (zero-point plate) were stained with crystal violet (see below), while the medium of the other plates was replaced by fresh culture medium (200 μl), to which the test substances were added in various concentrations (0 μM, as well as in the range of 0.001-10 μM; the final concentration of the solvent dimethyl sulfoxide was 0.5%). The cells were incubated for 4 days in the presence of test substances. Cell proliferation was determined by staining the cells with crystal violet: the cells were fixed by adding 20 μl/measuring point of an 11% glutaric aldehyde solution for 15 minutes at room temperature. After three washing cycles of the fixed cells with water, the plates were dried at room temperature. The cells were stained by adding 100 μl/measuring point of a 0.1% crystal violet solution (pH 3.0). After three washing cycles of the stained cells with water, the plates were dried at room temperature. The dye was dissolved by adding 100 μl/measuring point of a 10% acetic acid solution. The extinction was determined by photometry at a wavelength of 595 nm. The change of cell number, in percent, was calculated by normalization of the measured values to the extinction values of the zero-point plate (=0%) and the extinction of the untreated (0 μm) cells (=100%).

The subject of series [6] is NCI-H460, human non-small cell lung carcinoma cells. The series can be described thus: Proliferation assay, NCI-H460 (Method 3). The class given is cell-based. As to conditions: NCI-H460, 4 days, crystal violet, read-out: Inhibition of H460 cell proliferation IC50. As for the experimental part: as §2
Series [7] relates to Caco-2, human colorectal carcinoma cells. The series is described as follows: Proliferation assay, Caco-2 (Method 3). It is filed as cell-based. Particulars: Caco-2, 4 days, crystal violet, read-out: Inhibition of Caco-2 cell proliferation IC50. As for the experimental part: as §2

Like-named read-outs stand apart in the source and are kept apart here.

Chain of CDK9/CycT1 (P50750 whole entry): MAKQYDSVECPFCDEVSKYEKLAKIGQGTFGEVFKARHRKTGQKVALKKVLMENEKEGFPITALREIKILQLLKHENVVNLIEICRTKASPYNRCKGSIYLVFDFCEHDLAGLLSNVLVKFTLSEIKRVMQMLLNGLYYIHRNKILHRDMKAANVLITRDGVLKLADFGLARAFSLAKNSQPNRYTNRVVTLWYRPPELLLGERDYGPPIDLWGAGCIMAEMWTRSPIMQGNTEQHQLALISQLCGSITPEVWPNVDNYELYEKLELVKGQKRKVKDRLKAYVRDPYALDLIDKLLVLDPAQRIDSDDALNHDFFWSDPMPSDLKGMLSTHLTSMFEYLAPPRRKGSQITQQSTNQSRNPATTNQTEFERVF
Chain of CDK9/CycT1 (O60563 whole entry partner): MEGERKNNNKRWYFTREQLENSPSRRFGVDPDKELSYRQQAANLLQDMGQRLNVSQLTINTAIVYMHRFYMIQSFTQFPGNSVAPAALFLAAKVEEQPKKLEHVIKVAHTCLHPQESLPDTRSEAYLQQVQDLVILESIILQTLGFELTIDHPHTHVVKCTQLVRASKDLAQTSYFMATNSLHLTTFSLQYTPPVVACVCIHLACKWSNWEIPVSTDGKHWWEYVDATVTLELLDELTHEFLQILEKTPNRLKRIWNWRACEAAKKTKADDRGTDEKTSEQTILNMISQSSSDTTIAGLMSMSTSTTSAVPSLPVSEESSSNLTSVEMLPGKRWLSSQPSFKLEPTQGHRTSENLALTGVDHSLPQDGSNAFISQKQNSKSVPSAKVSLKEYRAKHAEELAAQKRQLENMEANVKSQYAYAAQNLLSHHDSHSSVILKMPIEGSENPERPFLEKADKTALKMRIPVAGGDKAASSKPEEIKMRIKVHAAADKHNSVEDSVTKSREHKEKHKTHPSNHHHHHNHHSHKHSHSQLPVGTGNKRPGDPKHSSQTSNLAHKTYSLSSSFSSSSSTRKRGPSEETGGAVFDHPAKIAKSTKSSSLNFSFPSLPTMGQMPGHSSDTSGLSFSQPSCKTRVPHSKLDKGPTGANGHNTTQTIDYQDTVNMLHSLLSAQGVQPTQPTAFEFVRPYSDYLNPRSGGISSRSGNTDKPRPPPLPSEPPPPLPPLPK

On to `CS(=N)(=O)Cc1cc(Cl)cc(Nc2ncc(F)c(-c3ccc(F)cc3F)n2)c1` (racemic) [Example 15, (rac)-N-{3-chloro-5-[(S-methylsulfonimidoyl)methyl]phenyl}-4-(2,4-difluorophenyl)-5-fluoropyrimidin-2-amine], for which the IC50 in series [1] is 24 nM; in series [2] (Homo sapiens, 96 h) it was 2210 nM; in series [4] (Homo sapiens, A2780, 96 h), 110 nM. Further, the “Selectivity CDK9/CDK2” value in series [1] was determined as 26. Also, the “maximal calculated oral bioavailability (Fmax) based on stability data in rat Hepatocytes” value (“maximal calculated oral bioavailability” for short) in series [3] was 79%.

Regarding `CS(=O)(Cc1cc(Nc2ncc(F)c(-c3ccc(F)cc3F)n2)cc(S(F)(F)(F)(F)F)c1)=NC(N)=O` (single isomer, unassigned) [Example 33, 1-{[3-{[4-(2,4-Difluorophenyl)-5-fluoropyrimidin-2-yl]amino}-5-(pentafluoro-λ^6-sulfanyl)benzyl](methyl)oxido-λ^6-sulfanylidene}urea], the IC50 turned out to be 16 nM in series [1]; 278 nM in series [2] (Homo sapiens, 96 h); 507 nM in series [5]; 675 nM in series [6]; 716 nM in series [7]; 246 nM in series [4]. In addition, in series [1], the “Selectivity CDK9/CDK2” value is reported as 98.

`CS(=O)(Cc1cc(Nc2ncc(F)c(-c3ccc(F)cc3F)n2)cc(C(F)(F)F)c1)=NC#N` (single isomer, unassigned) [Example 2, {[3-{[4-(2,4-Difluorophenyl)-5-fluoropyrimidin-2-yl]amino}-5-(trifluoromethyl)benzyl](methyl)oxido-λ^6-sulfanylidene}cyanamide]: the IC50 in series [1] amounted to 7 nM; in series [2] (Homo sapiens, 96 h), 350 nM; in series [5] (Homo sapiens, DU-145, 96 h), 310 nM; in series [6] (Homo sapiens, NCI-H460, 96 h), 360 nM; in series [7] (Homo sapiens, Caco-2, 96 h), 300 nM; in series [4] (Homo sapiens, A2780, 96 h), 130 nM. Moreover, the “Selectivity CDK9/CDK2” value in series [1] is reported as 166. Besides, in series [3], the “maximal calculated oral bioavailability” value is given as 79%.

For `CS(=O)(Cc1cc(Nc2ncc(F)c(-c3ccc(F)cc3F)n2)cc(S(F)(F)(F)(F)F)c1)=NC#N` (racemic) [Example 28, (rac)-{[3-{[4-(2,4-Difluorophenyl)-5-fluoropyrimidin-2-yl]amino}-5-(pentafluoro-λ^6-sulfanyl)benzyl](methyl)oxido-λ^6-sulfanylidene}cyanamide], the IC50 in series [1] worked out at 6 nM; in series [2] (Homo sapiens, 96 h), 262 nM; in series [5] (Homo sapiens, DU-145, 96 h), 311 nM; in series [6] (Homo sapiens, NCI-H460, 96 h), 359 nM; in series [7] (Homo sapiens, Caco-2, 96 h), 222 nM; in series [4] (Homo sapiens, A2780, 96 h) it was 185 nM. Further, the “Selectivity CDK9/CDK2” value in series [1] came to 210.

On to `CS(=N)(=O)Cc1cc(Nc2ncc(F)c(-c3ccc(F)cc3F)n2)cc(C(F)(F)F)c1` (racemic) [Example 4, (rac)-4-(2,4-Difluorophenyl)-5-fluoro-N-{3-[(S-methylsulfonimidoyl)methyl]-5-(trifluoromethyl)phenyl}pyrimidin-2-amine], for which, in series [1], the IC50 was 10 nM and the “Selectivity CDK9/CDK2” value amounted to 88. The IC50 in series [2] (Homo sapiens, 96 h) stood at 960 nM. Besides, the “maximal calculated oral bioavailability” value in series [3] is reported as 91%.

As to `CS(=O)(Cc1cc(Nc2ncc(F)c(-c3ccc(F)cc3F)n2)cc(C(F)(F)F)c1)=NC#N` (single isomer, unassigned) [Example 3, {[3-{[4-(2,4-Difluorophenyl)-5-fluoropyrimidin-2-yl]amino}-5-(trifluoromethyl)benzyl](methyl)oxido-λ^6-sulfanylidene}cyanamide], the IC50 was determined as 8 nM in series [1]; 590 nM in series [2]; 370 nM in series [5]; 340 nM in series [6]; 300 nM in series [7]; 260 nM in series [4]. For the same compound, the “Selectivity CDK9/CDK2” value in series [1] is 170. For the same compound, in series [3], the “maximal calculated oral bioavailability” value is on record as 76%.

`CS(=O)(Cc1cc(Nc2ncc(F)c(-c3ccc(F)cc3F)n2)cc(C(F)(F)F)c1)=NC(N)=O` (single isomer, unassigned) [Example 23, 1-{[3-{[4-(2,4-Difluorophenyl)-5-fluoropyrimidin-2-yl]amino}-5-(trifluoromethyl)benzyl](methyl)oxido-λ^6-sulfanylidene}urea]: the IC50 in series [1] worked out at 4 nM; in series [2], 290 nM; in series [5] (Homo sapiens, DU-145, 96 h), 250 nM; in series [6] (Homo sapiens, NCI-H460, 96 h), 350 nM; in series [7] (Homo sapiens, Caco-2, 96 h), 230 nM; in series [4], 970 nM. For the same compound, the “Selectivity CDK9/CDK2” value in series [1] was found to be 88. In addition, the “maximal calculated oral bioavailability” value in series [3] is 93%.

On to `CS(=O)(Cc1cc(Nc2ncc(F)c(-c3ccc(F)cc3F)n2)cc(C(F)(F)F)c1)=NC#N` (racemic) [Example 1, (rac)-{[3-{[4-(2,4-Difluorophenyl)-5-fluoropyrimidin-2-yl]amino}-5-(trifluoromethyl)benzyl](methyl)oxido-λ^6-sulfanylidene}cyanamide], for which, in series [1], the IC50 is 13 nM and the “Selectivity CDK9/CDK2” value is 105. For the same compound, the IC50 in series [2] (Homo sapiens, 96 h) was found to be 440 nM. Also, the “maximal calculated oral bioavailability” value in series [3] is listed as 75%.

`CS(=O)(Cc1cc(Nc2ncc(F)c(-c3ccc(F)cc3F)n2)cc(C(F)(F)F)c1)=NC(N)=O` (racemic) [Example 7, (rac)-1-{[3-{[4-(2,4-Difluorophenyl)-5-fluoropyrimidin-2-yl]amino}-5-(trifluoromethyl)benzyl](methyl)oxido-λ^6-sulfanylidene}urea]: in series [1], the IC50 was 12 nM and the “Selectivity CDK9/CDK2” value amounted to 98. Moreover, in series [2] (Homo sapiens, 96 h), the IC50 came to 470 nM. For the same compound, the “maximal calculated oral bioavailability” value in series [3] is listed as 80%.

As to `CS(=N)(=O)Cc1cc(Nc2ncc(F)c(-c3ccc(F)cc3F)n2)cc(S(F)(F)(F)(F)F)c1` (single isomer, unassigned) [Example 32, 4-(2,4-Difluorophenyl)-5-fluoro-N-{3-[(S-methylsulfonimidoyl)methyl]-5-(pentafluoro-λ^6-sulfanyl)phenyl}pyrimidin-2-amine], the IC50 in series [1] was found to be 6 nM; in series [2], 331 nM; in series [5] (Homo sapiens, DU-145, 96 h) it was 397 nM; in series [6] (Homo sapiens, NCI-H460, 96 h), 483 nM; in series [7] (Homo sapiens, Caco-2, 96 h), 282 nM; in series [4] it was 268 nM. For the same compound, in series [1], the “Selectivity CDK9/CDK2” value was 263. Moreover, in series [3], the “maximal calculated oral bioavailability” value is listed as 91%.
